According to patent US9102678B2, “Compounds and methods for inhibiting mitotic progression” (Millennium Pharmaceuticals, Inc., priority 2004, dated 2015):

Target: T1, recombinant murine Aurora A enzyme (Mus musculus, UniProt P97477)
T1 construct: hexahistidine (His6) (N); made in house; host or cells: insect cells, baculovirus (Bac-to-Bac, Invitrogen)
Experiment: Aurora A DELFIA Kinase Assay
Assay type: biochemical
Details: mouse Aurora A, 250 μM ATP; threshold less than or equal to 100 nM; read-out: IC50

T1 sequence (P97477 whole entry): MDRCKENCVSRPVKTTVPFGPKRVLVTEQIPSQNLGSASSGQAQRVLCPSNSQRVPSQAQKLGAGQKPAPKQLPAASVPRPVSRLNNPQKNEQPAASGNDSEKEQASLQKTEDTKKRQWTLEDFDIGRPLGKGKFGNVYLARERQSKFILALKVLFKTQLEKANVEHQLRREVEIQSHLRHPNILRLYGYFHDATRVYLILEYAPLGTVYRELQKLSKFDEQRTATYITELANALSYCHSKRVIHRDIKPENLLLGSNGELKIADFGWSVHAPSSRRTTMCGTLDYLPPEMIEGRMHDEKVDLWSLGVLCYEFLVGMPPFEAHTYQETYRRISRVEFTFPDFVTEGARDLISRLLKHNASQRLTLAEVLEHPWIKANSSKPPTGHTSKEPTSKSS

| Compound | IC50 [µM] |
| --- | --- |
| CCN(CC)CCN1CCN(C(=O)c2ccc(Nc3ncc4c(n3)-c3ccc(Cl)cc3C(c3ccccc3F)=NC4)cc2)CC1 [Compound I-209, 9-chloro-N-[4-({4-[2-(diethylamino)ethyl]piperazin-1-yl}carbonyl)phenyl]-7-(2-fluorophenyl)-5H-pyrimido[5,4-d][2]benzazepin-2-amine] | ≤ 0.1 |
| CN(C)CCCN1CCN(C(=O)c2ccc(Nc3ncc4c(n3)-c3ccc(Cl)cc3C(c3ccccc3F)=NC4)cc2)CC1 [Compound I-210, 9-chloro-N-[4-({4-[3-(dimethylamino)propyl]piperazin-1-yl}carbonyl)phenyl]-7-(2-fluorophenyl)-5H-pyrimido[5,4-d][2]benzazepin-2-amine] | ≤ 0.1 |
| CN1CCCC(CN2CCN(C(=O)c3ccc(Nc4ncc5c(n4)-c4ccc(Cl)cc4C(c4ccccc4F)=NC5)cc3)CC2)C1 (centres unmarked) [Compound I-211, 9-chloro-7-(2-fluorophenyl)-N-[4-({4-[(1-methylpiperidin-3-yl)methyl]piperazin-1-yl}carbonyl)phenyl]-5H-pyrimido[5,4-d][2]benzazepin-2-amine] | ≤ 0.1 |
| O=C(c1ccc(Nc2ncc3c(n2)-c2ccc(Cl)cc2C(c2ccccc2F)=NC3)cc1Cl)N1CCN(CCN2CCCC2)CC1 [Compound I-213, 9-chloro-N-(3-chloro-4-{[4-(2-pyrrolidin-1-ylethyl)piperazin-1-yl]carbonyl}phenyl)-7-(2-fluorophenyl)-5H-pyrimido[5,4-d][2]benzazepin-2-amine] | ≤ 0.1 |
| CC1CN(C(=O)c2ccc(Nc3ncc4c(n3)-c3ccc(Cl)cc3C(c3ccccc3F)=NC4)cc2Cl)CCN1 (centres unmarked) [Compound I-214, 9-chloro-N-{3-chloro-4-[(3-methylpiperazin-1-yl)carbonyl]phenyl}-7-(2-fluorophenyl)-5H-pyrimido[5,4-d][2]benzazepin-2-amine] | ≤ 0.1 |
| CN(C)C1CCN(C(=O)c2ccc(Nc3ncc4c(n3)-c3ccc(Cl)cc3C(c3c(F)cccc3F)=NC4)cc2Cl)C1 (centres unmarked) [Compound I-215, 9-chloro-N-(3-chloro-4-{[3-(dimethylamino)pyrrolidin-1-yl]carbonyl}phenyl)-7-(2,6-difluorophenyl)-5H-pyrimido[5,4-d][2]benzazepin-2-amine] | ≤ 0.1 |
| CC1CN(C(=O)c2ccc(Nc3ncc4c(n3)-c3ccc(Cl)cc3C(c3c(F)cccc3F)=NC4)cc2Cl)CCN1 (centres unmarked) [Compound I-216, 9-chloro-N-{3-chloro-4-[(3-methylpiperazin-1-yl)carbonyl]phenyl}-7-(2,6-difluorophenyl)-5H-pyrimido[5,4-d][2]benzazepin-2-amine] | ≤ 0.1 |
| Nc1ccc(Nc2ncc3c(n2)-c2ccc(Cl)cc2C(c2c(F)cccc2F)=NC3)cc1 [Compound I-217, N-[9-chloro-7-(2,6-difluorophenyl)-5H-pyrimido[5,4-d][2]benzazepin-2-yl]benzene-1,4-diamine] | ≤ 0.1 |
| O=C(O)C1CNCCN1C(=O)c1ccc(Nc2ncc3c(n2)-c2ccc(Cl)cc2C(c2c(F)cccc2F)=NC3)cc1 (centres unmarked) [Compound I-219, 1-(4-{[9-chloro-7-(2,6-difluorophenyl)-5H-pyrimido[5,4-d][2]benzazepin-2-yl]amino}benzoyl)piperazine-2-carboxylic acid] | ≤ 0.1 |
| CNC1CCN(C(=O)c2ccc(Nc3ncc4c(n3)-c3ccc(Cl)cc3C(c3c(F)cccc3F)=NC4)cc2)CC1 [Compound I-220, 9-chloro-7-(2,6-difluorophenyl)-N-(4-{[4-(methylamino)piperidin-1-yl]carbonyl}phenyl)-5H-pyrimido[5,4-d][2]benzazepin-2-amine] | ≤ 0.1 |
| NC1CCCN(C(=O)c2ccc(Nc3ncc4c(n3)-c3ccc(Cl)cc3C(c3c(F)cccc3F)=NC4)cc2)C1 (centres unmarked) [Compound I-221] | ≤ 0.1 |
| CC1CN(C(=O)c2cccc(Nc3ncc4c(n3)-c3ccc(Cl)cc3C(c3c(F)cccc3F)=NC4)c2)CC(C)N1 (centres unmarked) [Compound I-222, 9-chloro-7-(2,6-difluorophenyl)-N-{3-[(3,5-dimethylpiperazin-1-yl)carbonyl]phenyl}-5H-pyrimido[5,4-d][2]benzazepin-2-amine] | ≤ 0.1 |
| CN(C)C1CCN(C(=N)NC(=O)c2ccc(Nc3ncc4c(n3)-c3ccc(Cl)cc3C(c3c(F)cccc3F)=NC4)cc2)CC1 [Compound I-223, 4-{[9-chloro-7-(2,6-difluorophenyl)-5H-pyrimido[5,4-d][2]benzazepin-2-yl]amino}-N-[[4-(dimethylamino)piperidin-1-yl](imino)methyl]benzamide] | ≤ 0.1 |
| N=C(NC(=O)c1ccc(Nc2ncc3c(n2)-c2ccc(Cl)cc2C(c2c(F)cccc2F)=NC3)cc1)N1CCNCC1 [Compound I-224, 4-{[9-chloro-7-(2,6-difluorophenyl)-5H-pyrimido[5,4-d][2]benzazepin-2-yl]amino}-N-[imino(piperazin-1-yl)methyl]benzamide] | ≤ 0.1 |

Now from value to molecule:

| IC50 [µM] | Compound |
| --- | --- |
| ≤ 0.1 | O=C(c1ccc(Nc2ncc3c(n2)-c2ccc(Cl)cc2C(c2ccccc2F)=NC3)cc1)N1CCN(CCN2CCOCC2)CC1 [Compound I-189, {4-[9-Chloro-7-(2-fluoro-phenyl)-5H-benzo[c]pyrimido[4,5-e]azepin-2-ylamino]-phenyl}-[4-(2-morpholin-4-yl-ethyl)-piperazin-1-yl]-methanone] |
| ≤ 0.1 | COc1cccc(F)c1C1=NCc2cnc(Nc3ccc(C(=O)O)cc3)nc2-c2ccc(Cl)cc21 [Compound I-190, 4-[9-Chloro-7-(2-fluoro-6-methoxy-phenyl)-5H-benzo[c]pyrimido[4,5-e]azepin-2-ylamino]-benzoic acid] |
| ≤ 0.1 | C[C@H]1CN(C(=O)c2ccc(Nc3ncc4c(n3)-c3ccc(Cl)cc3C(c3c(F)cccc3F)=NC4)cc2)CCN1 [Compound I-191, {4-[9-Chloro-7-(2,6-difluoro-phenyl)-5H-benzo[c]pyrimido[4,5-e]azepin-2-ylamino]-phenyl}-(3(S)-methyl-piperazin-1-yl)-methanone] |
| ≤ 0.1 | NC1CN(C(=O)c2ccc(Nc3ncc4c(n3)-c3ccc(Cl)cc3C(c3ccccc3F)=NC4)cc2)C1 [Compound I-192, (3-Amino-azetidin-1-yl)-{4-[9-chloro-7-(2-fluoro-phenyl)-5H-benzo[c]pyrimido[4,5-e]azepin-2-ylamino]-phenyl}-methanone] |
| ≤ 0.1 | CN(C)CC1CN(C(=O)c2ccc(Nc3ncc4c(n3)-c3ccc(Cl)cc3C(c3ccccc3F)=NC4)cc2)C1 [Compound I-193, {4-[9-Chloro-7-(2-fluoro-phenyl)-5H-benzo[c]pyrimido[4,5-e]azepin-2-ylamino]-phenyl}-(3-dimethylaminomethyl-azetidin-1-yl)-methanone] |
| ≤ 0.1 | C[C@@H]1CN(C(=O)c2ccc(Nc3ncc4c(n3)-c3ccc(Cl)cc3C(c3c(F)cccc3F)=NC4)cc2)CCN1 [Compound I-194, {4-[9-Chloro-7-(2,6-difluoro-phenyl)-5H-benzo[c]pyrimido[4,5-e]azepin-2-ylamino]-phenyl}-(3(R)-methyl-piperazin-1-yl)-methanone] |
| ≤ 0.1 | O=C(c1ccc(Nc2ncc3c(n2)-c2ccc(Cl)cc2C(c2c(F)cccc2F)=NC3)cc1)N1CCNCC1 [Compound I-195, {4-[9-Chloro-7-(2,6-difluoro-phenyl)-5H-benzo[c]pyrimido[4,5-e]azepin-2-ylamino]-phenyl}-piperazin-1-yl-methanone] |
| ≤ 0.1 | NC1CCN(C(=O)c2ccc(Nc3ncc4c(n3)-c3ccc(Cl)cc3C(c3c(F)cccc3F)=NC4)cc2)C1 (centres unmarked) [Compound I-196, (3-Amino-pyrrolidin-1-yl)-{4-[9-chloro-7-(2,6-difluoro-phenyl)-5H-benzo[c]pyrimido[4,5-e]azepin-2-ylamino]-phenyl}-methanone] |
| ≤ 0.1 | CNC1CCN(C(=O)c2ccc(Nc3ncc4c(n3)-c3ccc(Cl)cc3C(c3c(F)cccc3F)=NC4)cc2)C1 (centres unmarked) [Compound I-197, {4-[9-Chloro-7-(2,6-difluoro-phenyl)-5H-benzo[c]pyrimido[4,5-e]azepin-2-ylamino]-phenyl}-(3-methylamino-pyrrolidin-1-yl)-methanone] |
| ≤ 0.1 | CNCCCN(C)C(=O)c1ccc(Nc2ncc3c(n2)-c2ccc(Cl)cc2C(c2c(F)cccc2F)=NC3)cc1 [Compound I-198, 4-[9-Chloro-7-(2,6-difluoro-phenyl)-5H-benzo[c]pyrimido[4,5-e]azepin-2-ylamino]-N-methyl-N-(3-methylamino-propyl)-benzamide] |
| ≤ 0.1 | CNC1CCN(C(=O)c2ccc(Nc3ncc4c(n3)-c3ccc(Cl)cc3C(c3c(F)cccc3OC)=NC4)cc2)C1 (centres unmarked) [Compound I-199, {4-[9-Chloro-7-(2-fluoro-6-methoxy-phenyl)-5H-benzo[c]pyrimido[4,5-e]azepin-2-ylamino]-phenyl}-(3-methylamino-pyrrolidin-1-yl)-methanone] |
| ≤ 0.1 | CN(C)C1CN(C(=O)c2cccc(Nc3ncc4c(n3)-c3ccc(Cl)cc3C(c3c(F)cccc3F)=NC4)c2)C1 [Compound I-204, 9-chloro-7-(2,6-difluorophenyl)-N-(3-{[3-(dimethylamino)azetidin-1-yl]carbonyl}phenyl)-5H-pyrimido[5,4-d][2]benzazepin-2-amine] |
| ≤ 0.1 | CN(C)C1CCN(C(=O)c2cccc(Nc3ncc4c(n3)-c3ccc(Cl)cc3C(c3c(F)cccc3F)=NC4)c2)CC1 [Compound I-205, 9-chloro-7-(2,6-difluorophenyl)-N-(3-{[4-(dimethylamino)piperidin-1-yl]carbonyl}phenyl)-5H-pyrimido[5,4-d][2]benzazepin-2-amine] |
| ≤ 0.1 | CN(C)C1CCN(C(=O)c2cccc(Nc3ncc4c(n3)-c3ccc(Cl)cc3C(c3c(F)cccc3F)=NC4)c2)C1 (centres unmarked) [Compound I-206, 9-chloro-7-(2,6-difluorophenyl)-N-(3-{[3-(dimethylamino)pyrrolidin-1-yl]carbonyl}phenyl)-5H-pyrimido[5,4-d][2]benzazepin-2-amine] |
| ≤ 0.1 | CCN(CC)CCCN1CCN(C(=O)c2ccc(Nc3ncc4c(n3)-c3ccc(Cl)cc3C(c3ccccc3F)=NC4)cc2)CC1 [Compound I-208, 9-chloro-N-[4-({4-[3-(diethylamino)propyl]piperazin-1-yl}carbonyl)phenyl]-7-(2-fluorophenyl)-5H-pyrimido[5,4-d][2]benzazepin-2-amine] |
